Two molecules from patent EP0745599A2, “1-(3-Heterocyclylphenyl)-s-triazine-2,4,6-oxo or thiotrione herbicidal agents” (American Cyanamid Company, priority 1995, dated 1996) can be followed below.

The structures appear in SMILES notation.

What all share (type): in vivo
Holding throughout (conditions): rated four to five weeks after treatment

For experiment [1], the system named is TRITICUM AESTIVUM, CV. APOLLO. Briefly: Preemergence herbicidal evaluation, TRZAWO (Wheat, Winter, CV. APOLLO). The text has this:
(§1) Results of herbicide evaluation are expressed on a rating scale (0-9). The scale is based upon a visual observation of plant stand, vigor, malformation, size, chlorosis and overall plant appearance as compared with a control.
(§2) The preemergence herbicidal activity of the test compounds of the present invention is exemplified by the following tests in which the seeds of a variety of monocotyledonous and dicotyledonous plants are separately mixed with potting soil and planted on top of approximately one inch of soil in separate pint cups. After planting, the cups are sprayed with the selected aqueous acetone solution containing test compound in sufficient quantity to provide the equivalent of about 0.125 to 0.50 kg per hectare of test compound per cup. The treated cups are then placed on greenhouse benches, watered and cared for in accordance with conventional greenhouse procedures. From four to five weeks after treatment, the tests are terminated and each cup is examined and rated according to the rating system provided in Example 42.

Experiment [2] has as its system ECHINOCHLOA CRUS-GALLI, (L) BEAU. Briefly: Postemergence herbicidal evaluation, ECHCG (Barnyardgrass). The procedure: (§3) In the tests, seedling plants are grown in jiffy flats for about two weeks. The test compounds are dispersed in 50/50 acetone/water mixtures containing 0.5% TWEEN®20, a polyoxyethylene sorbitan monolaurate surfactant of Atlas Chemical Industries, in sufficient quantities to provide the equivalent of about 0.125 kg to 0.500 kg per hectare of active compound when applied to the plants through a spray nozzle operating at 40 psi for a predetermined time. After spraying, the plants are placed on greenhouse benches and are cared for in the usual manner, commensurate with conventional greenhouse practices. From four to five weeks after treatment, the seedling plants are examined and rated according to the rating system set forth below. Where more than one test is involved for a given compound, the data are averaged.
as §1

A further experiment has as its system ZEA MAYS L. The experiment is described as follows: Preemergence herbicidal evaluation, ZEAMX (Corn, Field).
From the text: as §1, §2

Experiment [3] has as its system ABUTILON THEOPHRASTI, MEDIC. Briefly: Preemergence herbicidal evaluation, ABUTH (Velvetleaf).
From the text: as §1, §2

Experiment [4] relates to SETARIA VIRIDIS, (L) BEAU. The experiment is described as follows: Postemergence herbicidal evaluation, SETVI (Foxtail, Green). How it is done:
as §3, §1

Another experiment concerns IPOMOEA SPP. The experiment is described as follows: Preemergence herbicidal evaluation, IPOSS (Morningglory Spp.).
From the text: as §1, §2

Experiment [5] has as its system GLYCINE MAX(L)MERR. CV. WILLIAMS
The experiment is described as follows: Preemergence herbicidal evaluation, GLXMAW (Soybean, Williams).
From the text: as §1, §2

Experiment [6] deals with AMBROSIA ARTEMISIIFOLIA, L. Briefly: Preemergence herbicidal evaluation, AMBEL (Ragweed, Common).
From the text: as §1, §2

Experiment [7] has as its system ORYZA SATIVA, L. TEBONNET
The experiment is described as follows: Preemergence herbicidal evaluation, ORYSAT (Rice, Tebonnet).
From the text: as §1, §2

Experiment [8] has as its system ABUTILON THEOPHRASTI, MEDIC. The experiment is described as follows: Postemergence herbicidal evaluation, ABUTH (Velvetleaf). How it is done:
as §3, §1

The subject of the next experiment is GALIUM APARINE. The experiment is described as follows: Preemergence herbicidal evaluation, GALAP (Galium).
From the text: as §1, §2

The test system of the next experiment is CHENOPODIUM ALBUM, L. The experiment is described as follows: Preemergence herbicidal evaluation, CHEAL (Lambsquarters, Common).
From the text: as §1, §2

For `Cn1c(=O)n(CC(=O)O)c(=O)n(-c2cc(N3C(=O)C4=C(CCCC4)C3=O)c(F)cc2Cl)c1=O` [Compound 3, 3-[2-Chloro-5-(1-cyclohexene-1,2-dicarbox-imido)-4-fluorophenyl]tetrahydro-5-methyl-2,4,6-trioxo-s-triazine-1(2H)-acetic acid], the “Herbicide rating (0-9) TRZAWO” value in experiment [1] (0.125 kg/ha), in [1] (0.250 kg/ha) and in experiment [1] (0.500 kg/ha) was 0.0 each time. Also, the “Herbicide rating (0-9) ECHCG” value in [2] (0.125 kg/ha), in [2] (0.250 kg/ha) and in experiment [2] (0.500 kg/ha) was 0.0 in each case. The “Herbicide rating (0-9) ZEAMX” value with ZEA MAYS L. (0.125 kg/ha), in the experiment on ZEA MAYS L. (0.250 kg/ha) and with ZEA MAYS L. (0.500 kg/ha) was 0.0 each time. In addition, the “Herbicide rating (0-9) ABUTH” value in [3] (0.125 kg/ha), in [3] (0.250 kg/ha) and in experiment [3] (0.500 kg/ha) was 0.0 in each case. Also, the “Herbicide rating (0-9) SETVI” value in experiment [4] (0.125 kg/ha), in [4] (0.250 kg/ha) and in experiment [4] (0.500 kg/ha) was 0.0 each time. Also, the “Herbicide rating (0-9) IPOSS” value in the experiment on IPOMOEA SPP. (0.125 kg/ha), in the experiment with IPOMOEA SPP. (0.250 kg/ha) and in the experiment with IPOMOEA SPP. (0.500 kg/ha) was 0.0 throughout. The “Herbicide rating (0-9) GLXMAW” value in experiment [5] (0.125 kg/ha), in experiment [5] (0.250 kg/ha) and in experiment [5] (0.500 kg/ha) was 0.0 throughout. Further, the “Herbicide rating (0-9) AMBEL” value in [6] (0.125 kg/ha), in experiment [6] (0.250 kg/ha) and in experiment [6] (0.500 kg/ha) was 0.0 throughout. For the same molecule, the “Herbicide rating (0-9) ORYSAT” value in [7] (0.125 kg/ha), in experiment [7] (0.250 kg/ha) and in experiment [7] (0.500 kg/ha) was 0.0 each time.

Turning to `COC(=O)Cn1c(=O)n(C)c(=O)n(-c2cc(N3C(=O)C4=C(CCCC4)C3=O)c(F)cc2Cl)c1=O` [Compound 1, Methyl 3-[2-Chloro-5-(1-cyclohexene-1,2-dicarboximido)-4-fluorophenyl]tetrahydro-5-methyl-2,4,6-trioxo-s-triazine-1(2H)-acetate], the “Herbicide rating (0-9) TRZAWO” value in experiment [1] (0.125 kg/ha), in experiment [1] (0.250 kg/ha) and in [1] (0.500 kg/ha) was 0.0 in each case. The “Herbicide rating (0-9) ABUTH” value in experiment [8] (0.125 kg/ha), in [8] (0.250 kg/ha) and in experiment [8] (0.500 kg/ha) was 9.0 in each case. The “Herbicide rating (0-9) GALAP” value in the experiment with GALIUM APARINE (0.250 kg/ha) and in the experiment with GALIUM APARINE (0.500 kg/ha) was 0.0 throughout. The “Herbicide rating (0-9) ZEAMX” value with ZEA MAYS L. (0.125 kg/ha), in the experiment with ZEA MAYS L. (0.250 kg/ha) and in the experiment on ZEA MAYS L. (0.500 kg/ha) was 0.0 throughout. For the same molecule, the “Herbicide rating (0-9) CHEAL” value in the experiment with CHENOPODIUM ALBUM, L. (0.125 kg/ha) is 9.0; in the experiment with CHENOPODIUM ALBUM, L. (0.250 kg/ha) it was 9.0; in the experiment on CHENOPODIUM ALBUM, L. (0.500 kg/ha), 9.0. For the same molecule, the “Herbicide rating (0-9) GLXMAW” value in experiment [5] (0.125 kg/ha), in experiment [5] (0.250 kg/ha) and in experiment [5] (0.500 kg/ha) was 0.0 each time. Further, the “Herbicide rating (0-9) ORYSAT” value in experiment [7] (0.125 kg/ha), in [7] (0.250 kg/ha) and in experiment [7] (0.500 kg/ha) was 0.0 throughout.
